In patent publication US20220241208A1, “PHARMACEUTICAL COMPOSITIONS FOR THE TREATMENT OF HBV” (priority 2019, published 2022):
Blank lines part the entries; values can stand above or below the compound they belong to.

How the values were obtained:
[1] = SGF/FaSSIF two-stage gastric transfer non-sink dissolution test; format: physicochemical; details: dosed dry (SDD dry powder or API), 30 min SGF, then FaSSIF pH 6.8
Experimental: In-vitro drug dissolution performance for each SDD prepared in Example 1 and described in Table 1 (i.e., Formulations 1-4) was evaluated by a two-stage gastric transfer non-sink dissolution test, which stimulates pH and bile salt concentrations for both gastric and intestinal exposure. A drug product sample start in 0.1N HCl(aq) (simulated gastric fluid or SGF) for 30 minutes at which point an equal volume of concentrated fasted-state simulated intestinal fluid (FaSSIF) is added to the SGF, resulting in a final pH of 6.8 in FaSSIF (100 mM PBS, 2.24 mg/mL SIF, Biorelevant Inc.).
The dissolution performance of the SDDs of Formulations 1-4 and crystalline Compound 1 was tested. The dissolution test is used to measure the supersaturation of drug above the bulk crystalline Compound 1 solubility in biorelevant intestinal media (FaSSIF) after 30 minutes exposure to a low-pH environment (SGF). During the test, samples were transferred from SGF [theoretical Cmax=1000 μA/mL] to FaSSIF SGF [theoretical Cmax=500 μA/mL].
The dissolution performance of the jet-milled material and crystalline Compound 1 was tested in a non-sink dissolution test, to measure the supersaturation of the drug above the bulk crystalline Compound 1 solubility in biorelevant intestinal media (FaSSIF) after 30 minutes exposure to a low-pH environment (SGF). During the test, samples were transferred from SGF to FaSSIF SGF. […]

HBV [2] = experiment: Study 211: open-label extension study of Compound 1 + Nrtl combination therapy; design: species or system human; details: in vivo
Source text: Compound 1 was investigated in an open-label, extension study (Study 211) to evaluate the safety and efficacy of combination therapy and Compound 1's effect on sustained viral response biomarkers. […] Study 211 utilized the four assays described in Studies 201 and 202.
Participants with chronic HBV who were currently not being treated received Compound 1 along with SOC NUC (entecavir [ETV]) tablets orally for 24 weeks. Eligible participants entered a separate extension study after Week 24 to continue open-label Compound 1 for up to an additional year.

HBV [3] = experiment: Study 202: Compound 1+ETV vs placebo+ETV in treatment-naive HBeAg positive viremic chronic hepatitis B subjects; format: in vivo, human; details: Tx naïve HBeAg+ subjects
Experimental: In this study (also referred to as study 202), 25 treatment-naive HBeAg positive […] subjects are randomized 1:1 (Group 1: […] FIG. 1 depicts a flow chart of the study. […] Subjects (Group 2) with chronic HBV who are currently not being treated receive matching placebo along with SOC NUC (entecavir [ETV]) tablets orally for 24 weeks. Subjects receive SOC NUC (0.5 mg QD of ETV) orally as per approved package insert and matching QD placebo tablets orally. […] Subjects return to the clinic at weeks (wk) 2 and 4 and then monthly up to wk 24. Clinical labs, safety and PK are monitored, as well as HBV biomarkers including HBV DNA, HBV RNA, HBsAg and HBeAg. At weeks 12 and 24, longitudinal serum samples are assayed for detectable virus. Compound 1 is abbreviated as C1 in the tables and figures.

[4] = listed as Crystalline Compound 1

AUC35-210FaSSIF (area under the curve after transfer to FaSSIF from 35 to 210 minutes) [1]: 5300 min * μgA/mL
C210 (drug concentration at 180 minutes after transfer to FaSSIF) [1]: 27.6 μgA/mL
Cmax FaSSIF (maximum drug concentration after transfer to FaSSIF) [1]: 33.4 μgA/mL
AUC35-210FaSSIF (area under the curve after transfer to FaSSIF from 35 to 210 minutes) [1, 4]: 5300 min * μgA/mL
Cmax FaSSIF (maximum drug concentration after transfer to FaSSIF) [1, 4]: 33.4 μgA/mL
SMILES: O=C(NCc1cnc(C(F)(F)F)s1)c1ccc2c(c1)NC(=O)c1ccccc1S2(=O)=O [Formulation 5, 11-oxo-N-((2-(trifluoromethyl)thiazol-5-yl)methyl)-10,11-dihydrodibenzo[b,f][1,4]thiazepine-8-carboxamide 5,5-dioxide]

SMILES: O=C(NCc1cnc(C(F)(F)F)s1)c1ccc2c(c1)NC(=O)c1ccccc1S2(=O)=O [Compound 1, 11-oxo-N-((2-(trifluoromethyl)thiazol-5-yl)methyl)-10,11-dihydrodibenzo[b,f][1,4]thiazepine-8-carboxamide 5,5-dioxide]
effect on pgRNA levels (HBV [2]): multi-log reduction in pgRNA levels

AUC35-210FaSSIF (area under the curve after transfer to FaSSIF from 35 to 210 minutes) [1]: 5400 min * μgA/mL
C210 (drug concentration at 180 minutes after transfer to FaSSIF) [1]: 29.6 μgA/mL
Cmax FaSSIF (maximum drug concentration after transfer to FaSSIF) [1]: 38.0 μgA/mL
SMILES: O=C(NCc1cnc(C(F)(F)F)s1)c1ccc2c(c1)NC(=O)c1ccccc1S2(=O)=O [Compound 1-Jet Mill, 11-oxo-N-((2-(trifluoromethyl)thiazol-5-yl)methyl)-10,11-dihydrodibenzo[b,f][1,4]thiazepine-8-carboxamide 5,5-dioxide]

SMILES: C=C1[C@H](CO)[C@@H](O)C[C@@H]1n1cnc2c(=O)[nH]c(N)nc21 [ETV, entecavir]
HBV DNA mean log10 decline (HBV [3]; Week 12): 3.29 log10 IU/mL
HBV RNA mean log10 decline (HBV [3]; Week 12): 0.44 log10 copies/mL
HBV DNA mean log10 decline (HBV [3]; Week 24): 3.99 log10 IU/mL
HBV RNA mean log10 decline (HBV [3]; Week 24): 0.61 log10 copies/mL
